From patent US20230357269A1 (LES LABORATOIRES SERVIER, priority 2020, published 2023)

molecular target: human recombinant LRRK2 protein (Homo sapiens (Human), UniProt Q5S007); assay: LRRK2 Kinase Activity Assay (ADP-Glo); type: biochemical; conditions: LRRK2 wt; LRRKtide peptide and ATP substrates; 1h-incubation at 37° C.
How it was run: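 Recombinant human LRRK2 acted on LRRKtide peptide and ATP for 1 h at 37 °C. ADP formed was detected by ADP-Glo luminescence (ATP depletion, then ADP-to-ATP conversion and luciferase). IC50s came from curve fits over 10 concentrations (N=2).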

human recombinant LRRK2 protein, sequence (Q5S007 whole entry): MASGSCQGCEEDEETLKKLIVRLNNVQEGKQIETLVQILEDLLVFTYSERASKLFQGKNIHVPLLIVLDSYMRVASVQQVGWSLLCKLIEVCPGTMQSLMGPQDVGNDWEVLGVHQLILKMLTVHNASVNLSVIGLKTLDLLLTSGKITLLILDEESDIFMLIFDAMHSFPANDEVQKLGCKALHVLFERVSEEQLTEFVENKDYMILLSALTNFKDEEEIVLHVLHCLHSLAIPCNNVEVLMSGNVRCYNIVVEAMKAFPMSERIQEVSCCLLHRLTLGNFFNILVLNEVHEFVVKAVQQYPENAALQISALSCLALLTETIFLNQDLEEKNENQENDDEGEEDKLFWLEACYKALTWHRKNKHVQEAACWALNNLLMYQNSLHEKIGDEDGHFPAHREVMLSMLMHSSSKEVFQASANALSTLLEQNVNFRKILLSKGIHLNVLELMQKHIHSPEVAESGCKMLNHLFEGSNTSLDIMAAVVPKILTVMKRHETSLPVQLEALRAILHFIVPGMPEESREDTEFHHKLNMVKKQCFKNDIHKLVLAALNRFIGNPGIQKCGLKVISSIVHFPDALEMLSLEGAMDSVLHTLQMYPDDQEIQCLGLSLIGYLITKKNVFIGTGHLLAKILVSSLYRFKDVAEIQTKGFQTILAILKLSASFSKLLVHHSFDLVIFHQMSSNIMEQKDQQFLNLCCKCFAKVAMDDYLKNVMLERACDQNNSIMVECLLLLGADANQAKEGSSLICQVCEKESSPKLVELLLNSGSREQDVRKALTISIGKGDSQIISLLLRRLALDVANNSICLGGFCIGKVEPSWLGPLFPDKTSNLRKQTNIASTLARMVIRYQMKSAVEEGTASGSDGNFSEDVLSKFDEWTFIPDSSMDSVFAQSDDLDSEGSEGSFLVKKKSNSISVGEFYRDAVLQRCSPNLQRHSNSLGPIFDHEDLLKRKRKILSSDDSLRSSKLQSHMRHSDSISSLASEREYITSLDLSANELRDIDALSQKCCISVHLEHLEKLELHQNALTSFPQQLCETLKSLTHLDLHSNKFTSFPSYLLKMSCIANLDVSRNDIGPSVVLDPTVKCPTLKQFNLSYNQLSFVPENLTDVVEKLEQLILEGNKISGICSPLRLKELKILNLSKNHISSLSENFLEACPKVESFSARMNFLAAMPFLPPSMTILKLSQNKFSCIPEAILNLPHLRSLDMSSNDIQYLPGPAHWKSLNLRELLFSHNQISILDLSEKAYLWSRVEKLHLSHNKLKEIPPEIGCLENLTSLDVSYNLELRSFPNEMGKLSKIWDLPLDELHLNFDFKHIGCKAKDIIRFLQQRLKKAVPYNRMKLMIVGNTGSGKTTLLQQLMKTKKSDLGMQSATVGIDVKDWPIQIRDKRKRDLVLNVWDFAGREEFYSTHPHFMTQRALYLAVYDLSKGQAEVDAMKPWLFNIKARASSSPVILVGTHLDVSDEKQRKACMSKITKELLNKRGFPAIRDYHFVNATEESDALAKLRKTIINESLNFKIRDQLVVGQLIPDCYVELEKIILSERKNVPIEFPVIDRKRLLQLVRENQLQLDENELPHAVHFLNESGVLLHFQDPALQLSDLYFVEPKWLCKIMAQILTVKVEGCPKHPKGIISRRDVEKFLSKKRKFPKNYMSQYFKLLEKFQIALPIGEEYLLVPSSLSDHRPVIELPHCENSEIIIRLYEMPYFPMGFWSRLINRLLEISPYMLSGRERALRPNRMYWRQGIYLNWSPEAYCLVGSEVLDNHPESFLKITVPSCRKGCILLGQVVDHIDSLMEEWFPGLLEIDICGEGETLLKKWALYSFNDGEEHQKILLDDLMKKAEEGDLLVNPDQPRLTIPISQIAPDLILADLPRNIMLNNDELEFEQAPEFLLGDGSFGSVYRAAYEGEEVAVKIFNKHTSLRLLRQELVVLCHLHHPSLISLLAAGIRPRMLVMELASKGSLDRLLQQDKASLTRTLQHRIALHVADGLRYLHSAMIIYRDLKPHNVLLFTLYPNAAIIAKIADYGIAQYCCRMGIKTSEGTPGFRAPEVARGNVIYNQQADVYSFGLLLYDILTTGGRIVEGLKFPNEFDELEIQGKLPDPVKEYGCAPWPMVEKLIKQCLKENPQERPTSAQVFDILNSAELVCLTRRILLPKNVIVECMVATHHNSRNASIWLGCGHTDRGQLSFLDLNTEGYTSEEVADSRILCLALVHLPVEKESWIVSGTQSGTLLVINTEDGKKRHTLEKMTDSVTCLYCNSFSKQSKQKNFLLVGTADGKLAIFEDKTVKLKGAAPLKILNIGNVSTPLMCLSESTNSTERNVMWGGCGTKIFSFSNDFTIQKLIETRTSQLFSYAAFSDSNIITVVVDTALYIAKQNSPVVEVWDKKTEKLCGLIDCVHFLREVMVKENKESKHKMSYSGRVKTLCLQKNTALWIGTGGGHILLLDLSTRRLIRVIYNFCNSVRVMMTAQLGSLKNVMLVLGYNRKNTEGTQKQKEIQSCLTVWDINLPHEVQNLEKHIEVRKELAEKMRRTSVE

Row | Structure (SMILES) | IC50 [nM]
1 | COc1ncc2cc1COC(=O)NCC[C@@H](C)Oc1ccc3[nH]nc-2c3c1 [Example 143, (13R)-5-methoxy-13-methyl-8,14-dioxa-4,10,19,20-tetraazatetracyclo[13.5.2.1^2,6.0^18,21]tricosa-1(20),2,4,6(23),15,17,21-heptaen-9-one] | < 10
2 | C[C@@H]1CCNC(=O)OCc2cc(c[nH]c2=O)-c2n[nH]c3ccc(cc23)O1 [Example 144, (13R)-13-methyl-8,14-dioxa-4,10,19,20-tetraazatetracyclo[13.5.2.1^2,6.0^18,21]tricosa-1(20),2,6(23),15,17,21-hexaene-5,9-dione] | < 10
3 | Cn1nc2cc1CCOC(=O)NCCCOc1ccc3[nH]nc-2c3c1 [Example 145, 4-methyl-8,14-dioxa-3,4,10,19,20-pentaazatetracyclo[13.5.2.1^2,5.0^18,21]tricosa-1(20),2,5(23),15(22),16,18(21)-hexaen-9-one] | 100 to 1000
4 | C[C@@H]1CCNC(=O)OCc2cccc(n2)-c2n[nH]c3cc(F)c(cc23)O1 [Example 146, (13R)-16-fluoro-13-methyl-8,14-dioxa-10,19,20,23-tetraazatetracyclo[13.5.2.1^2,6.0^18,21]tricosa-1(20),2,4,6(23),15,17,21-heptaen-9-one] | < 10
5 | O=C1NCCCOc2ccc3[nH]nc(c3c2)-c2csc(n2)CO1 [Example 147, 7,13-dioxa-4-thia-9,18,19,22-tetraazatetracyclo[12.5.2.1^2,5.0^17,20]docosa-1(19),2,5(22),14(21),15,17(20)-hexaen-8-one] | < 10
6 | Cc1cc2nc(n1)COC(=O)NCC[C@@H](C)Oc1ccc3[nH]nc-2c3c1 [Example 148, (13R)-4,13-dimethyl-8,14-dioxa-5,10,19,20,23-pentaazatetracyclo[13.5.2. 1^2,6.0^18,21]tricosa-1(20),2(23),3,5,15(22),16,18(21)-heptaen-9-one] | < 10
7 | O=C1NCCCOc2ccc3[nH]nc(c3c2)C2=CN=C(CCO1)S2 [Example 149, 8,14-dioxa-23-thia-4,10,19,20-tetraazatetracyclo[13.5.2.1^2,5.0^18,21]tricosa-1(20),2,4,15(22),16,18(21)-hexaen-9-one] | < 10
8 | C[C@@H]1CCNC(=O)O[C@@H](C)c2cccc(n2)-c2n[nH]c3ccc(cc23)O1 [Example 150, (7S,13R)-7,13-dimethyl-8,14-dioxa-10,19,20,23-tetraazatetracyclo[13.5.2. 1^2,6.0^18,21]tricosa-1(20),2(23),3,5,15(22),16,18(21)-heptaen-9-one] | 10 to 100
9 | C[C@@H]1CCNC(=O)OCCn2cc(cc2C#N)-c2n[nH]c3ccc(cc23)O1 [Example 151, (13R)-13-methyl-9-oxo-8,14-dioxa-5,10,19,20-tetraazatetracyclo[13.5.2. 1^2,5.0^18,21]tricosa-1(20),2(23),3,15(22),16,18(21)-hexaene-4-carbonitrile] | < 10
10 | O=C1NCC(F)(F)COc2ccc3[nH]nc(c3c2)-c2cccc(c2)CO1 [Example 152, 12,12-difluoro-8,14-dioxa-10,19,20-triazatetracyclo[13.5.2.1^2,6.0^18,21]tricosa-1(20),2(23),3,5,15(22),16,18(21)-heptaen-9-one] | < 10
11 | C[C@@H]1CCNC(=O)OCc2cccc(c2)-c2n[nH]c3c(F)cc(cc23)O1 [Example 153, (13R)-17-fluoro-13-methyl-8,14-dioxa-10,19,20-triazatetracyclo[13.5.2. 1^2,6.0^18,21]tricosa-1(20),2(23),3,5,15(22),16,18(21)-heptaen-9-one] | < 10
12 | C[C@@H]1CCNC(=O)O[C@@H](C)c2cncc(n2)-c2n[nH]c3ccc(cc23)O1 [Example 154, (7S,13R)-7,13-dimethyl-8,14-dioxa-4,10,19,20,23-pentaazatetracyclo[13.5.2.1^2,6.0^18,21]tricosa-1(20),2(23),3,5,15(22),16,18(21)-heptaen-9-one] | 10 to 100
13 | C[C@@H]1CCNC(=O)O[C@H](C)c2cncc(n2)-c2n[nH]c3ccc(cc23)O1 [Example 155, (7R,13R)-7,13-dimethyl-8,14-dioxa-4,10,19,20,23-pentaazatetracyclo[13.5. 2.1^2,6.0^18,21]tricosa-1(20),2(23),3,5,15(22),16,18(21)-heptaen-9-one] | < 10
14 | C[C@H]1CCNC(=O)OCc2cncc(n2)-c2n[nH]c3ccc(cc23)O1 [Example 156, (13S)-13-methyl-8,14-dioxa-4,10,19,20,23-pentaazatetracyclo[13.5.2. 1^2,6.0^18,21]tricosa-1(20),2(23),3,5,15(22),16,18(21)-heptaen-9-one] | < 10
15 | C[C@@H]1CCNC(=O)OCc2cccc(c2)-c2n[nH]c3ccc(nc23)O1 [Example 157, (13R)-13-methyl-8,14-dioxa-10,19,20,22-tetraazatetracyclo[13.5.2. 1^2,6.0^18,21]tricosa-1(20),2(23),3,5,15,17,21-heptaen-9-one] | < 10
16 | C[C@@H]1CCNC(=O)OCc2nc(cn2C)-c2n[nH]c3ccc(cc23)O1 [Example 158, (12R)-4,12-dimethyl-7,13-dioxa-4,9,18,19,22-pentaazatetracyclo[12.5.2. 1^2,5.0^17,20]docosa-1(19),2,5(22),14(21),15,17(20)-hexaen-8-one] | 10 to 100
17 | C[C@@H]1CCNC(=O)OCCn2ncc(n2)-c2n[nH]c3ccc(cc23)O1 [Example 159, (13R)-13-methyl-8,14-dioxa-4,5,10,19,20,23-hexaazatetracyclo[13.5.2.1^2,5.0^18,21]tricosa-1(20),2(23),3,15,17,21-hexaen-9-one] | < 10

More lines, now with the values ahead:

Row | IC50 [nM] | Structure (SMILES)
18 | < 10 | C[C@@H]1CCNC(=O)OCCC2=NC=C(S2)c2n[nH]c3ccc(cc23)O1 [Example 160, (13R)-13-methyl-8,14-dioxa-23-thia-4,10,19,20-tetraazatetracyclo[13.5.2.1^2,5.0^18,21]tricosa-1(20),2,4,15,17,21-hexaen-9-one]
19 | 10 to 100 | C[C@@H]1CCNC(=O)OCCc2nc(cn2C)-c2n[nH]c3ccc(cc23)O1 [Example 161, (13R)-4,13-dimethyl-8,14-dioxa-4,10,19,20,23-pentaazatetracyclo[13.5.2.1^2,5.0^18,21]tricosa-1(20),2,5(23),15(22),16,18(21)-hexaen-9-one]
20 | < 10 | C[C@@H]1CCNC(=O)OCc2cccc(c2)-c2n[nH]c3cnc(cc23)O1 [Example 162, (13R)-13-methyl-8,14-dioxa-10,16,19,20-tetraazatetracyclo[13.5.2.1^2,6.0^18,21]tricosa-1(20),2(23),3,5,15(22),16,18(21)-heptaen-9-one]
21 | < 10 | CN1CCCNC(=O)OCc2cccc(c2)-c2n[nH]c3ccc1cc23 [Example 163, 14-methyl-8-oxa-10,14,19,20-tetraazatetracyclo[13.5.2.1^2,6.0^18,21]tricosa-1(20),2(23),3,5,15,17,21-heptaen-9-one]
22 | < 10 | C[C@@H]1CCNC(=O)OCc2cncc(c2)-c2n[nH]c3ccc(nc23)O1 [Example 164, (13R)-13-methyl-8,14-dioxa-4,10,19,20,22-pentaazatetracyclo[13.5.2. 1^2,6.0^18,21]tricosa-1(20),2(23),3,5,15,17,21-heptaen-9-one]
23 | < 10 | C[C@@H]1CCNC(=O)OCc2cccc(c2)-c2n[nH]c3ncc(cc23)O1 [Example 165, (13R)-13-methyl-8,14-dioxa-10,17,19,20-tetraazatetracyclo[13.5.2.1^2,6.0^18,21]tricosa-1(20),2(23),3,5,15(22),16,18(21)-heptaen-9-one]
24 | < 10 | O=C1NCCCOc2ccc3[nH]nc(c3c2)-c2cnn(n2)CCO1 [Example 166, 8,14-dioxa-4,5,10,19,20,23-hexaazatetracyclo[13.5.2.1^2,5.0^18,21]tricosa-1(20),2(23),3,15(22),16,18(21)-hexaen-9-one]
25 | < 10 | O=C1NCC(F)(F)COc2ccc3[nH]nc(c3c2)-c2cnn(n2)CCO1 [Example 167, 12,12-difluoro-8,14-dioxa-4,5,10,19,20,23-hexaazatetracyclo[13.5.2.1^2,5.0^18,21]tricosa-1(20),2(23),3,15(22),16,18(21)-hexaen-9-one]
26 | < 10 | O=C1NC[C@@H](F)COc2ccc3[nH]nc(c3c2)-c2cccc(c2)CO1 [Example 168, (12R)-12-fluoro-8,14-dioxa-10,19,20-triazatetracyclo[13.5.2.1^2,6.0^8211]tricosa-1(20),2(23),3,5,15(22),16,18(21)-heptaen-9-one]
27 | < 10 | O=C1NC[C@H](F)COc2ccc3[nH]nc(c3c2)-c2cccc(c2)CO1 [Example 169, (12S)-12-fluoro-8,14-dioxa-10,19,20-triazatetracyclo[13.5.2.1^2,6.0^18,21]tricosa-1(20),2(23),3,5,15(22),16,18(21)-heptaen-9-one]
28 | < 10 | O=C1NCC(F)(F)COc2ccc3[nH]nc(c3c2)-c2cncc(n2)CO1 [Example 170, 12,12-difluoro-8,14-dioxa-4,10,19,20,23-pentaazatetracyclo[13.5.2.1^2,6.0^18,21]tricosa-1(20),2(23),3,5,15(22),16,18(21)-heptaen-9-one]
29 | < 10 | O=C1NC[C@H](F)COc2ccc3[nH]nc(c3c2)-c2cncc(n2)CO1 [Example 171, (12S)-12-fluoro-8,14-dioxa-4,10,19,20,23-pentaazatetracyclo[13.5.2.1^2,6.0^18,21]tricosa-1(20),2(23),3,5,15,17,21-heptaen-9-one]
30 | < 10 | O=C1NC[C@@H](F)COc2ccc3[nH]nc(c3c2)-c2cncc(n2)CO1 [Example 172, (12R)-12-fluoro-8,14-dioxa-4,10,19,20,23-pentaazatetracyclo[13.5.2.1^2,6.0^18,21]tricosa-1(20),2(23),3,5,15,17,21-heptaen-9-one]
31 | < 10 | O=C1NC[C@H](F)COc2ccc3[nH]nc(c3c2)-c2cnn(n2)CCO1 [Example 173, (12S)-12-fluoro-8,14-dioxa-4,5,10,19,20,23-hexaazatetracyclo[13.5.2.1^2,5.0^18,21]tricosa-1(20),2(23),3,15,17,21-hexaen-9-one]
